Source: patent US7442776B2, “Cancerous disease modifying antibodies” (priority 1999, dated 2008)

Key:
Set-up in all cases: key to the marks not given beside the values
Details in all cases: purified antibody or control, 5 days incubation, calcein; four experiments in triplicate
[1] = test system: SW1116 colon cancer cell line
[2] = test system: MDA-MB-468 (MB-468) breast cancer cell line; assay: Live/Dead cytotoxicity assay
[3] = test system: NCI-H460 lung cancer cell line; assay: Live/Dead cytotoxicity assay
[4] = test system: OVCAR-3 ovarian cancer cell line; assay: Live/Dead cytotoxicity assay
[5] = test system: MCF-7 breast cancer cell line
[6] = test system: PC-3 prostate cancer cell line
[7] = test system: HT-29 colon cancer cell line; assay: Live/Dead cytotoxicity assay
[8] = test system: MDA-MB-231 (MB-231) breast cancer cell line; assay: Live/Dead cytotoxicity assay
[9] = test system: SW620 colon cancer cell line; assay: Live/Dead cytotoxicity assay
[10] = test system: CCD-27sk non-cancer cell line
[11] = test system: Hs888.Lu non-cancer cell line

SMILES | In Vitro Cytotoxicity, SW1116 [1] | In Vitro Cytotoxicity, MB-468 [2] | In Vitro Cytotoxicity, NCI H460 [3] | In Vitro Cytotoxicity, OVCAR [4] | In Vitro Cytotoxicity, MCF-7 [5] | In Vitro Cytotoxicity, PC-3 [6] | In Vitro Cytotoxicity, HT-29 [7] | In Vitro Cytotoxicity, MB-231 [8] | In Vitro Cytotoxicity, SW620 [9] | In Vitro Cytotoxicity, CCD 27sk [10] | In Vitro Cytotoxicity, Hs888 Lu [11]
[N-]=[N+]=[N-].[Na+] [NaN3] | ++ | +++ | +++ | +++ | +++ | +++ | +++ | +++ |  |  | 
C[C@@H]1C[C@@H]([C@H](O)CC2CC(=O)NC(=O)C2)C(=O)[C@@H](C)C1 [CHX, Cycloheximide] | +++ | +++ | ++ | +++ | +++ | +++ | +++ | ++ | ++ | +++ | +++
